{"source": "patent US11572590B2", "about": "“Methods for evaluating tumor cell spheroids using 3D microfluidic cell culture device” (Dana-Farber Cancer Institute, Inc., priority 2017, dated 2023)", "key": {"[1]": {"molecular_target": "off-target kinases (Homo sapiens, UniProt P05771)", "sequence (P05771 1-673 isoform P05771-2)": "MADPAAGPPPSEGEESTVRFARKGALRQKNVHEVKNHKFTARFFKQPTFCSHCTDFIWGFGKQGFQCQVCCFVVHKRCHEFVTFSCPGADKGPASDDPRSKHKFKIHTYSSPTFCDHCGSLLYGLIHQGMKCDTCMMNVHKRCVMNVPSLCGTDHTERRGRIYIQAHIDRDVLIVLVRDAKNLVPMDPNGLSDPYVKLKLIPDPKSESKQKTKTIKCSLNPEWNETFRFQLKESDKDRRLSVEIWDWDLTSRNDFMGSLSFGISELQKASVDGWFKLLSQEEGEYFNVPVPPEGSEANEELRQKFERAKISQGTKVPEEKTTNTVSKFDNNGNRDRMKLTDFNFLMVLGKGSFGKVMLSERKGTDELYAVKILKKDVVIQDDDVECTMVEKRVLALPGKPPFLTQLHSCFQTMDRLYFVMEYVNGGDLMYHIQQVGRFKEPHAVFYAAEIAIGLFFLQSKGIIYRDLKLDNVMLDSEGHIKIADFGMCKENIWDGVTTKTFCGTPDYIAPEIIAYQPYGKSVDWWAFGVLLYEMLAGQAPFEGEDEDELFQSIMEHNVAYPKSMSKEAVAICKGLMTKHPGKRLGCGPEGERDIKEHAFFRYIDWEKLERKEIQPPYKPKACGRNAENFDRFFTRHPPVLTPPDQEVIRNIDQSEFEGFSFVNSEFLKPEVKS", "assay": "SelectScreen Kinase Profiling, single point inhibition and IC50 for off-target kinases", "type": "biochemical", "design": "other: PRKCB2 (PKC beta II); ZLYTE; ATP Km app; 1000 μM", "details": "PRKCB2 (PKC beta II), ZLYTE, ATP Km app", "method": "Biochemical single point inhibition and IC50 concentrations for TBK1, IKKε (IKBKE), and off-target kinases were determined at ThermoFisher Scientific using SelectScreen Kinase Profiling Services (Madison, Wis., USA) (Tables S4A and S4B-1-7). To determine cellular potency, the human colorectal cancer carcinoma cell line HCT116 (ATCC, Manassas, Va.) was maintained in T175 flasks in complete RPMI medium; RPMI 1640 supplemented with 10% FBS, 1× Penicillin-Streptomycin solution and 1×MEM (non-essential amino acids). HCT116 cells were grown to 90-95% confluency in T175 flasks containing complete RPMI medium and transfected in bulk using Lipofectamine 2000 (Invitrogen, Carlsbad, Calif.) with 70 μg of ISG54-luciferase reporter plasmid (Elim Biopharmaceuticals Inc., Hayward, Calif.). The reporter plasmid contains a luciferase gene expression cassette under the transcriptional regulation of the promoter of the human interferon stimulated gene 54 (ISG54). Transfection of the cells was allowed to take place for 6 hours, after which the cells were harvested by treatment with 0.25% trypsin EDTA (Corning Inc., Corning, N.Y.). Trypsinized cells were added to 384-well poly-d-lysine treated black clear bottom tissue culture assay plates (Greiner Bio-One GmbH, Kremsmünster, Austria) at a density of 20,000 cells/well in 80 μL of complete RPMI medium and incubated overnight. After 16-18 hours post-transfection, the assay plates were washed with PBS (Corning Inc., Corning, N.Y.), followed by addition of 80 μL/well of serum-free RPMI 1640 medium containing 1× Penicillin-Streptomycin solution, 1×MEM and 350 nL of DMSO or titrations of Compound 1. […] The assay plates were incubated for 5 hours at 37° C., followed by addition of One-Glo luciferase firefly reagent (Promega, Madison, Wis.) at 1:1 volume/well and luminescence was measured in an EnVision Multilabel Plate Reader (PerkinElmer, Santa Clara, Calif.). The EC50 values were calculated from the fit of the dose-response curves to a four-parameter equation. […]"}, "[2]": {"tested_on": "B16F10 lung metastases", "assay": "B16F10 tail vein injection model, lung metastases", "type": "in vivo, mouse", "details": "Compound 1 40 mg/kg daily for 13 days ± anti-PD-L1 10 mg/kg", "method": "(§1) Combination studies were performed by vivoPharm (Hummelstown, Pa., USA). All procedures used in the performance of these studies were carried out in accordance with vivoPharm's Standard Operating Procedures, with particular reference to US_SOPvP_EF0314 “General Procedures for Efficacy Studies.” CT26 colon carcinoma cells (1×10^6 cells/mouse in 100 μL, passage 2-3) were re-suspended in serum-free DMEM and implanted in the upper right flank of 11-12 week old female Balb/c mice (Charles River Laboratories). Mice were randomized into four groups of 10 using a matched pair distribution method based on tumor size for CT26. Treatment was initiated 12 days post-inoculation with mean tumor volume at start of dosing of 125.85 mm^3. Vehicle or Compound 1 (40 mg/kg) was administered by oral gavage daily for 26 days and isotype control or a reverse chimera anti-PD-L1 cloned from literature reports (e.g., Deng, R. et al. MAbs (2016), the content of which is incorporated herein by reference in entirety) and placed into a mouse IgG1 framework (10 mg/kg) was administered every 5 days for a total of six doses. Investigators were not blinded to treatment groups. […] Mice were sacrificed on Day 13 and lung metastases were quantified (small ≤1 mm, medium >1 mm and ≤3 mm, large >3 mm). No large lung metastases were detected."}, "[3]": {"tested_on": "MC38 allograft", "assay": "MC38 allograft, Compound 1 and anti-PD-L1 combination in vivo", "design": "species or system mouse", "details": "Cmpd1 + αPD-L1; did not reach significance vs single-agent PD-L1"}, "[4]": {"tested_on": "CT26 allograft", "assay": "CT26 allograft, Compound 1 and anti-PD-L1 combination in vivo", "design": "species or system mouse", "details": "Compound 1 40 mg/kg oral gavage daily + anti-PD-L1 10 mg/kg every 5 days", "method": "as §1"}, "[5]": {"tested_on": "Jurkat T cell leukemia cells", "assay": "IL-2 secretion by Jurkat cells on anti-CD3 coated plates", "type": "cell-based", "details": "dose titration, 24 hours", "method": "Freshly isolated human CD4+ and CD8+ T cells were obtained from AllCells (Alameda, Calif., USA). Cells were spun down and resuspended in serum free Xvivo15 media (Lonza Walkersville, Inc., Chicago, Ill., USA) supplemented with 5 ng/mL […] and incubated overnight at 37° C. Cells were plated on anti-CD3 coated plates (5 μg/mL OKT3, eBioscience, Dallas, Tex., USA, overnight) with 2 μg/mL anti-CD28 (eBioscience, Dallas, Tex., USA). Cells are treated in replicate plates with a dose-titration of Compound 1 for 24 hours for IL-2 and 96 hours for IFNγ. IL-2 and IFNγ in the supernatant were measured using single- or multi-plex immunoassay (Mesoscale Discovery, Rockville, Md., USA). Jurkat T cell leukemia cells (clone E61 obtained from ATCC) plated on anti-CD3 coated plates were treated with a dose titration of Compound 1 for 24 hours. IL-2 in the supernatant was measured as described above."}}, "note": "Where two headings read alike, the source gives them in different places.", "data": [{"smiles": "N#Cc1cc(-c2ncnc(Nc3ccc(N4CCN(C5COC5)CC4)cc3)n2)ccc1OC1CCOCC1", "note": "[Compound 1, 5-(4-((4-(4-(oxetan-3-yl)piperazin-1-yl)phenyl)amino)-1,3,5-triazin-2-yl)-2-((tetrahydro-2H-pyran-4-yl)oxy)benzonitrile]", "values": [{"measurement": "inhibition", "setting": "[1]; read-out: % Inhibition 1", "value": 12, "unit": "%"}, {"measurement": "inhibition", "setting": "[1]; read-out: % Inhibition 2", "value": 8, "unit": "%"}, {"measurement": "inhibition", "setting": "[1]; read-out: % Inhibition Avg", "value": 10, "unit": "%"}, {"measurement": "sensitization of B16F10 tail vein model to PD-L1 blockade (lung metastases)", "setting": "[2]", "value": "could not be sensitized"}, {"measurement": "in vivo survival, MC38 model, combination treatment", "setting": "[3]", "value": "enhanced"}, {"measurement": "survival, CT26 allograft, combination vs Cmpd1 or anti-PD-L1 alone", "setting": "[4]", "value": "longer survival"}, {"measurement": "tumour control, CT26 allograft, combination vs Cmpd1 or anti-PD-L1 alone", "setting": "[4]", "value": "greater tumour control"}, {"measurement": "secretion of IL-2 from Jurkat cells", "setting": "[5]", "value": "enhanced secretion"}]}]}
